Measured values published in patent US20180193336A1, “SPRAY DRY FORMULATIONS” (Pulmokine, Inc., priority 2013, published 2018).
Converted amounts (≈) assume the structure as drawn. Read-outs that look alike come from different tables or passages of the source.

How the values were obtained:
[1] = Solubility experiments in ethanol/water
Description: To maximize the amount of hydrophobic shell former (Leucine) on the surface, a higher ratio is desired.

[2] = typically; cited from earlier work
[3] = system: PDGFAA stimulated phosphorylation of ERK1 and ERK2; assay: PDGFAA stimulated phosphorylation of ERK1 and ERK2 in human fetal lung fibroblasts; format: cell-based; conditions: 1 uM; PDGFAA 10 ng/ml
Description: (§1) Data shown are mean±SEM. […] PK10453=structure 2; PK10571=structure 2a. Platelet derived growth factor receptor alpha=PDGFR-alpha=PDGFR-α=PDGF receptor alpha=PDGF alpha receptor. Platelet derived growth factor receptor beta=PDGFR-beta=PDGFRβ=PDGF receptor beta=PDGF beta receptor.

rat MCT+PN model [4] = assay: Telemetry of pulmonary artery pressure in rat MCT+PN model; format: in vivo; conditions: rat MCT+PN
Experimental: Pneumonectomy and implantation of a TRM53P telemetry monitor in the pulmonary artery (Telemetry Research, New Zealand and ADInstruments, Colorado) was carried out in rats. Two weeks after MCT, PK10453 (Structure 2) was administered three times daily for 1 week. […] The two groups underwent 4 min exposures of either the vehicle control or PK10453 (Structure 2). Sampling of PA pressure was performed 5 min before each morning dose in ambulatory animals in room air (estimated atmospheric pressure 716 mm Hg based on elevation of animal facility). […] Telemetry data was obtained for 10 min daily before each morning dose for this protocol.

[5] = system: PDGFBB stimulated AKT phosphorylation; assay: In cell Western, PDGFBB stimulated AKT phosphorylation in human fetal lung fibroblasts; format: cell-based; conditions: for IC50 for inhibiting PDGFBB stimulated AKT phosphorylation relative to imatinib: fetal human lung fibroblasts, FIG. 18
Experimental: HLFs were maintained in subculture at no more than 6 passages in DMEM with 5% FBS and 4 mM Glutamax at 37° C., 5% CO2. HLFs were plated and grown to 70-80% confluence in 96 well plates then serum-starved for 48 hours. […] Antibodies were detected using IRDye 680LT goat anti-mouse IgG and IRDye 800 W goat α-rabbit IgG conjugated antibodies. After washing, the signal was quantified using an Odyssey Infrared Imaging System (LI-COR). Phosphoprotein signal (800 nm) was normalized to total protein signal (700 nm) acquired from each well and experimental duplicates on same plate were averaged and reported.

[6] = system: rat monocrotaline pneumonectomy model; conditions: inhaled twice daily for ten days
Experimental: Study protocol: male Sprague Dawley rats underwent left pneumonectomy and 10 days later were given monocrotaline 50 mg/kg IP.
Plethysmography was performed with an EMKA 2 chamber body plethysmograph and data acquired with IOX software. Statistical analysis was performed with XLSTAT.

[7] = system: phosphorylated PDGF receptor beta (Y751, Y1021); assay: Western blot of phosphorylated PDGF receptor beta in adult human lung fibroblasts; conditions: HLFa; 0.01-10 uM, 30 min pre-treatment; 10 ng/mL PDGF BB 7.5 minutes
Experimental: FIG. 40 PANEL A illustrates pPDGFrBeta (Y751), Beta-Actin, Stripped and reprobed with Total PDGFrBeta, note that 25 ug/lane was loaded, with a 1:500 dilution of pPDGFrBeta(Y751) antibody during incubation.
FIG. 40 PANEL B illustrates pPDGFrBeta (Y1021), Beta-Actin, Stripped and reprobed with Total PDGFrBeta, note that 25 ug/lane was loaded, with a 1:500 dilution of pPDGFrBeta(Y1021) antibody during incubation.

[8] = system: PDGFBB stimulated phosphorylation of ERK1 and ERK2; assay: PDGFBB stimulated phosphorylation of ERK1 and ERK2 in human fetal lung fibroblasts; format: cell-based
Description: as §1

PDGFRbeta = PDGFRbeta (Homo sapiens, UniProt P09619); conditions: FIG. 25
Experimental: A Z-lyte kinase assay was performed to determine the inhibition of PDGFRalpha and PDGFRbeta mediated phosphorylation by PK10453 (Structure 2). Ten point titration curves were modeled to calculate the IC50 (Invitrogen Select Screen®).

rat MCT+PN model [9] = assay: Inhaled PK10571 dry powder in rat MCT+PN model, PA telemetry; format: in vivo
Description: We performed a pre-clinical efficacy study of inhaled PK10571 in the rat MCT+PN model. We used the MCT+PN model, because in this model, neointimal pulmonary arteriole proliferative lesions occur in a manner similar to what is observed in the human disease. In this experiment, drug treatment was started later than in prior studies of PK10453.
In prior studies, PK10453 was started 2 weeks after MCT injection (3 weeks after pneumonectomy). In the PK10571 SDD study, treatment was started 3 weeks after MCT injection (4 weeks after pneumonectomy). It should be noted that pneumonectomized rats given MCT develop severe PAH starting two weeks after the MCT injection. (In MCT only rats, it takes longer for PAH to develop (i.e., 3 weeks)). […] A. PK10453 study time drug treatment started (See Pulm Circ 2014 8(1):82-102). B. PK10571 SDD study time treatment started in MCT+PN model. C. Start time typical for MCT only model. Data acquired via telemetry monitoring of PA pressures in ambulatory rats. (Note: Day 11 in MCT+PN model data not shown).
PK10571 dry powder with leucine and trehalose excipient was administered by nose only inhalation 30 minutes (on average) twice a day to the rats, via a Vilnius Dry Powder Generator connected to a CH Technologies Exposure tower. Estimated average API dose deposited in lung 0.25 mg/kg (calculated from measurement of aerosol concentration and minute ventilation of pneumonectomized rat) with estimated human dose equivalent (HED) 0.04 mg/kg. […] The mode of death of these animals has not been fully characterized but may be related to RV failure. We have noted that although pulmonary pressures rise gradually and progressively over a period of two weeks after MCT injection, in the third week, animals may enter a “crisis” phase and die suddenly. […] This finding confirms the disease modifying potential of PK10571. One animal in the drug treatment group was euthanized for weight loss on day 5 as per our preset criteria.

[10] = system: SU5416/hypoxia/normoxia model of PAH; assay: PK10571 in SU5416/hypoxia/normoxia model of PAH; format: in vivo, rat
Experimental: The SU5416/hypoxia/normoxia model of PAH is well described in the field, is considered to accurately reflect the human disease of PAH and to predict drug response in humans^25. Study animals were administered SU5416 20 mg/kg SQ and placed in a COY Hypoxia chamber at FiO2=10%. Animals studied after 1 week hypoxia; 2 weeks hypoxia/12 days normoxia; 3 weeks hypoxia/12 days normoxia; and 3 weeks hypoxia/5 weeks normoxia. End of study procedures included acquisition of right ventricular pressure volume loops with a Scisense Admittance system. The RV PV loops were acquired on ventilated open chest animals with isoflurane anesthesia and 100% F1O2. In addition a subset of animals had implantation of DSI PAC40 telemetry catheters in the PA. In this subset, PA pressures were monitored continuously in ambulatory animals, and analysis of PA pressures before and after dosing was performed for 7 days of dosing.
PK10571/trehalose/leucine dry powder or Vehicle was administered twice a day via the CH Technologies Exposure System, in the SUGEN5416/2 week hypoxia/normoxia 2 week subgroups.
In the SU5416 model we also examined microfil radiopaque casts of the pulmonary arterial circulation with microCT and 3D reconstruction. The casts were made after flushing the pulmonary circulation of the rats with heparinized saline followed by sodium nitroprusside to maximally vasodilate the pulmonary arterial vessels. Microfil was then injected with a syringe pump at 0.2 ml/min until the proximal PA was engorged and a lattice of microfil was visible in the peripheral lung. The chest was filled with ice saline until the microfil was cured. […] Vehicle treated animal on left. PK10571 treated animal on right. Resolution: 20 microns.

[11] = dry powder with leucine and trehalose, inhaled twice a day, within treatment group

Sequence of PDGFRbeta (P09619 600-962 limits assumed): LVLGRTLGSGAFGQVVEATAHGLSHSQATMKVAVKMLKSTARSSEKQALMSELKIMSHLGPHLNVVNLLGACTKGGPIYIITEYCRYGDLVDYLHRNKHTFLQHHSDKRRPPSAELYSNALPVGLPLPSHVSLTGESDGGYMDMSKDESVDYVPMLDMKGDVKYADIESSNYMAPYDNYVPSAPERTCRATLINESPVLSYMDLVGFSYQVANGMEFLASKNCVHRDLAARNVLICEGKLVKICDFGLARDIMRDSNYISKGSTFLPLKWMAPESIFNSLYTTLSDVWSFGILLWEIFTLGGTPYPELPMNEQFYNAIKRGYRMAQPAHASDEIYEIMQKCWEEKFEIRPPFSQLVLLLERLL

**Q.** With CC(C)C[C@H](N)C(=O)O [L-Leucine] as the compound, how does the “concentration obtained with a 2:1 EtOH:H2O mixture” value [1] read?
**A.** The value was “up to 13 mg/ml”.

**Q.** What about the “concentration at which precipitated, 1:1 v:v EtOH:H2O solution” value ([1]; room temperature) of the same compound?
**A.** Its value is 5000 to 10000 µg/mL.

**Q.** And the “solubility in EtOH” value [2]?
**A.** The value was “insoluble”.

**Q.** What about the solubility in water [2] of the same compound?
**A.** Its solubility in water is 25 to 30 mg/mL.

**Q.** What does the source list for Cc1ccc(NC(=O)c2ccc(CN3CCN(C)CC3)cc2)cc1Nc1nccc(-c2cccnc2)n1 [Imatinib, reference compound]?
**A.** decrease of PDGF AA stimulated ppERK1 and ppERK2 formation [3]: equally effective; efficacy by inhalation in the MCT+PN model (rat MCT+PN model [4]): not effective

**Q.** Which “IC50 for inhibiting PDGFBB stimulated AKT phosphorylation relative to imatinib” value [5] does the source give for COc1cc(-c2cncc(N[C@@H](C)c3cccc(NC(=O)c4cnc(C#N)nc4)c3)n2)ccc1O [PK10467] here?
**A.** Its value is “lower IC50 concentration compared to imatinib”.

**Q.** Which “IC50 for inhibiting PDGFBB stimulated AKT phosphorylation relative to imatinib” value [5] does the source give for C=CS(=O)(=O)NCc1ccc(C(=O)Nc2cccc([C@H](C)Nc3cncc(-c4ccc(O)c(OC)c4)n3)c2)cc1 [PK10468] here?
**A.** Its value is “lower IC50 concentration compared to imatinib”.

**Q.** With COc1cc(-c2cncc(N[C@@H](C)c3cccc(NC(=O)c4cncc(C)c4)c3)n2)ccc1C [PK10569] as the compound, how does the “IC50 for inhibiting PDGFBB stimulated AKT phosphorylation relative to imatinib” value [5] read?
**A.** The value was “lower IC50 concentration compared to imatinib”.

**Q.** With COc1ccc(-c2cncc(N[C@@H](C)c3cccc(NC(=O)c4cncc(C)c4)c3)n2)cc1OC [PK10571] as the compound, how does the “airway resistance compared to vehicle” value [6] read?
**A.** Its value is “no significant difference”.

**Q.** What about the “minute ventilation compared to vehicle” value [6] of the same compound?
**A.** Its value is “no significant difference”.

**Q.** What about the “respiratory rate compared to vehicle” value [6] of the same compound?
**A.** Its value is “lower”.

**Q.** And the “tidal volume compared to vehicle” value [6]?
**A.** The value was “significantly improved”.

**Q.** And the IC50 ([5]; Homo sapiens, Fibroblast, FIG. 26, each concentration in duplicate, read-out: IC50, PDGF BB stimulated pAKT in human lung fibroblasts)?
**A.** The IC50 was 0.05 µM.

**Q.** And the “IC50 for inhibiting PDGFBB stimulated AKT phosphorylation relative to imatinib” value [5]?
**A.** The value was “lower IC50 concentration compared to imatinib”.

**Q.** What about the “phosphorylation of PDGF receptor beta” value [7] of the same compound?
**A.** The value was “decreases phosphorylation”.

**Q.** What about the solubility ([1]; aqueous with cosolvent or surfactant or cyclodextrin) of the same compound?
**A.** The solubility was 50 mg/mL (≈ 106 mM).

**Q.** What about the solubility ([1]; organic solvent or mixture) of the same compound?
**A.** The solubility was 50 mg/mL (≈ 106 mM).

**Q.** What about the solubility in water ([1]; pH 7) of the same compound?
**A.** Its solubility in water is “insoluble”.

**Q.** What about the “decrease of PDGF BB stimulated ppERK1 and ppERK2 relative to imatinib” value ([8]; 1 uM and 10 uM) of the same compound?
**A.** Its value is “more effective”.

**Q.** And the “decrease of PDGFBB stimulated ppERK1 formation” value ([8]; 1 uM, PDGF BB 10 ng/ml)?
**A.** Its value is “effective”.

**Q.** What about the “decrease of PDGF AA stimulated ppERK1 and ppERK2 formation” value [3] of the same compound?
**A.** The value was “equally effective”.

**Q.** What about the “potency against PDGFR beta kinase domain relative to imatinib” value (PDGFRbeta) of the same compound?
**A.** The value was “more potent than imatinib”.

**Q.** And the “effect on pulmonary artery pressures” value (rat MCT+PN model [9]; dry powder containing leucine and trehalose)?
**A.** Its value is “effective in lowering pulmonary artery pressures”.

**Q.** And the “reduction of PA pressure, day 8 compared to day 1” value (rat MCT+PN model [9]; [11])?
**A.** The value was 22%.

**Q.** What about the “reduction of PA pressure, day 8 vs. day 3” value (rat MCT+PN model [9]; [11]) of the same compound?
**A.** The value was 35%.

**Q.** And the “PA systolic pressure post dose (approximately 1 hour) vs pre-dose” value (rat MCT+PN model [9]; early stage of treatment, up to day 4)?
**A.** Its value is “transient decrease”.

**Q.** What about the “RV end systolic pressure compared to vehicle” value ([10]; SU5416, 2 weeks hypoxia, 12 days normoxia, PK10571/trehalose/leucine dry powder twice a day) of the same compound?
**A.** The value was “significant reduction”.

**Q.** And the “PA systolic pressure after dosing compared to before dosing” value ([10]; on some days, telemetry)?
**A.** The value was “significant decrease”.

**Q.** And the “3D microCT of pulmonary arterial vasculature” value ([10]; preliminary, compared to vehicle treated animal)?
**A.** The value was “more third and fourth generation branches”.
